Data published in the supplement of paper PMC10307832.

Tests used:
Test in all cases: relative viability (nuclei count vs DMSO), 5 days (fraction); higher = more cells survive
[1] = compound: C#Cc1cccc(Nc2ncnc3cc(OC)c(OCCCCCCC(=O)NO)cc23)c1 [CUDC-101] + Cc1nc(NC(=O)N2CCC[C@H]2C(N)=O)sc1-c1ccnc(C(C)(C)C(F)(F)F)c1 [Alpelisib] (partner 2 µM)
In short: (§1)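 Values are medians from duplicate plates. Each reflects relative viability, defined as the nuclei count of treated wells over that of vehicle wells. Lung cancer cell lines in 1536-well plates were pin-tool dosed one day after seeding with one drug alone or with a fixed anchor-drug dose plus five library-drug doses (not always all listed) in √10 steps, then fixed, stained and imaged at 4× after 5 days.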

[2] = compound: C#Cc1cccc(Nc2ncnc3cc(OC)c(OCCCCCCC(=O)NO)cc23)c1 [CUDC-101] + CC1(C)CCC(c2ccc(Cl)cc2)=C(CN2CCN(c3ccc(C(=O)NS(=O)(=O)c4ccc(N[C@H](CCN5CCOCC5)CSc5ccccc5)c(S(=O)(=O)C(F)(F)F)c4)cc3)CC2)C1 [Navitoclax] (partner 0.5 µM)
In short: as §1

[3] = compound: C1=CC=C2C(=C1)N=C(S2)C(C#N)C3=NC(=NC=C3)NCCC4=CN=CC=C4 + CS(=O)(=O)CCNCc1ccc(-c2ccc3ncnc(Nc4ccc(OCc5cccc(F)c5)c(Cl)c4)c3c2)o1 [Lapatinib] (partner 2 µM)
In short: as §1

[4] = compound: C1=CC=C2C(=C1)N=C(S2)C(C#N)C3=NC(=NC=C3)NCCC4=CN=CC=C4 + Nc1nc2[nH]cc(CCc3ccc(C(=O)N[C@@H](CCC(=O)O)C(=O)O)cc3)c2c(=O)[nH]1 [Pemetrexed] (partner 0.2 µM)
In short: as §1

UMC-11
relative viability ([1]; first compound 0.01 µM): 1.24
relative viability ([1]; first compound 0.03162 µM): 0.902
relative viability ([1]; first compound 0.1 µM): 0.779
relative viability ([1]; first compound 0.3162 µM): 0.395
relative viability ([1]; first compound 1 µM): 0.123
relative viability ([2]; first compound 0.01 µM): 0.313
relative viability ([2]; first compound 0.03162 µM): 0.302
relative viability ([2]; first compound 0.1 µM): 0.257
relative viability ([2]; first compound 0.3162 µM): 0.225
relative viability ([2]; first compound 1 µM): 0.0766
relative viability ([3]; first compound 0.005 µM): 0.902
relative viability ([3]; first compound 0.01581 µM): 0.877
relative viability ([3]; first compound 0.05 µM): 0.843
relative viability ([3]; first compound 0.1581 µM): 1.59
relative viability ([3]; first compound 0.5 µM): 0.901
relative viability ([4]; first compound 0.01581 µM): 0.79
relative viability ([4]; first compound 0.05 µM): 0.769
relative viability ([4]; first compound 0.1581 µM): 0.94
relative viability ([4]; first compound 0.5 µM): 0.771
